Patent US5952189A (priority 1997, dated 1999)
Several values for one entry are separate records, joined by “and”; a condition that tells them apart may be missing. Equal entries are not always repeated. Entries after “also recorded” stand apart in the source; their conditions may differ.

What was measured:
mice = assay: Toxicity of DK120 in mice on daily injection; format: in vivo
Description: In preliminary studies daily injection of mice with DK120 at 20 mg/kg was lethal. The reason for toxicity is not clear but may be related to the ability of DK120 to inhibit chymotrypsin-like enzymes that may be essential for the normal function of various tissues.

U937 cells = assay: cells; format: cell-based, human
[1] = test system: anti-Fas-induced hepatocyte apoptosis; assay: Anti-Fas induced hepatotoxicity in mice (serum transaminases); format: in vivo
Description: It has been previously shown that injection of mice with antibodies directed against the Fas antigen causes hepatocyte apoptosis and death due to liver failure (Ogasawara et al. (1993) Nature 364:806-809). Therefore, the effects of administration of DK120 to mice injected with antibodies directed against the murine Fas antigen were tested.
(§1) ^1 Mice (2 for each treatment) were injected ip +/- DK120 30 min prio
to antiFas antibodies. Twelve h later serum transaminase levels were […]

[2] = test system: LPS-induced hepatotoxicity
3T3 = assay: Inhibition of UV-induced DNA fragmentation in 3T3 cells; format: cell-based, murine; conditions: UV 0.5 J/cm^2, 8 h, no inhibitor 38 ± 1.9
Description: To determine if these findings were unique to U937 or if other cell lines also require protease activity to undergo apoptosis, the effects of several inhibitors on apoptosis induced by UV light in the human mammary carcinoma, BT-20, the murine fibroblast cell line, 3T3, and the human myeloid leukemia, HL-60 were tested. For the BT-20 and 3T3 cells, target cells were pretreated for one hour (with or without inhibitors as indicated in the table) and exposed to UV light at 0.5 J/cm^2 and then incubated for eight hours prior to assessing DNA fragmentation. HL-60 cells were pretreated for one hour (with or without inhibitors as indicated in the table) and exposed to UV at 0.2 J/cm^2 and then incubated for two hours prior to assessing DNA fragmentation.
DNA fragmentation assays were carried out according to the protocol of Wright S. C., et al. (1,992) J. Cell. Biochem. 48, 344-355. Target cells were labeled with ^3 H-thymidine and plated in triplicate in flat bottom microtiter plates. Cells were incubated for the indicated length of time for each experiment in the presence of TNF or various inhibitors. In some experiments, cells were treated with UV light at 245 nm using a UV Crosslinker (Fisher Scientific). Assays were harvested and counted on a Packard matrix 96 beta counter. Percent DNA fragmentation was calculated as for the nuclear assay described in Example 3. In assays to test the effects of various inhibitors, the pH of extra wells containing assay buffer, target cells, and each inhibitor was always checked at the beginning and end of each assay to assure that the pH remained at 7.5.

[3] = test system: chymotrypsin-like enzymes; conditions: cited from earlier work
[4] = test system: TNF-induced hepatocyte apoptosis; assay: TNF-induced hepatotoxicity in mice (serum transaminases); format: in vivo, Balb/c mice; conditions: for AST: without DK120 78
Description: In this example the concept that a protease inhibitor such as DK120 may attenuate inappropriate apoptosis that causes tissue damage in systemic inflammatory response syndrome (SIRS) was tested. TNF-induced hepatocyte apoptosis in mice was performed as described by Leist et al. ((1995) J. Immunol. 154:1778-1786). Briefly, Balb/c mice were injected ip with […] murine TNF combined with […] Actinomycin D/mouse. Twelve h later, mice were anesthetized and bled from the heart to measure serum transaminase levels, which are standard clinically used indicators of liver damage. Mice that were treated with protease inhibitors were injected ip with these compounds 30 min. prior to TNF. Alanine aminotransferase (ALT) and aspartate aminotransferase (AST) were assayed using a commercially available kit (Sigma). […] However, treatment with DK120 caused a doss-dependent decrease in serum transaminase levels. […] However, a drug that nonspecifically blocks all apoptotic pathways that normally function to maintain homeostasis may not be clinically desirable. Subsequent studies were performed to determine if DK120 could also suppress hepatocyte apoptosis in response to a different stimulus.
as §1
to TNF and Actinomycin D. Twelve h later serum transaminase levels were
To further explore the specificity of DK120 attenuation of TNF-induced hepatotoxicity, several compounds were tested that were found previously not to inhibit apoptotic protease proteolytic activity as measured against a synthetic substrate (data not shown). […] Therefore, the protection mediated by DK120 is not a property of any boron-containing molecule.
^1 Mice (3 for each treatment) were injected ip +/- the inhibitors 30
min prior to TNF and Actinomycin D. Twelve h later serum transaminase

[5] = test system: SEB-induced hepatotoxicity; format: in vivo, mice; conditions: Gln + SEB + DK120 5 mg/kg
isolated U937 nuclei = assay: DNA fragmentation assay using isolated U937 nuclei; format: cell-based, human; conditions: inhibitor 50 μM (FIG. 6B)
Description: U937 cells were labeled with ^3 H-thymidine by culturing overnight with isotope at 0.5 μCi/ml. The cells were pelleted, washed once, and the cytoplasmic membrane lysed by resuspending the cells in assay buffer (50 mM Tris, 250 mM sucrose 10 mM MgSO4, pH 7.5) plus 0.02% NP-40. Nuclei were then pelleted and resuspended in assay buffer at 1×10^6 /ml. The assay was set up in triplicate in flat bottom microtiter plates under sterile conditions. Nuclei (0.05 ml) were mixed with 0.05 ml of sample diluted in 50 mM Tris pH 7.5 or buffer alone to determine total counts. Plates were incubated for 5 h at 37° C. and then harvested by the addition of 0.1 ml of harvesting buffer (10 mM Tris, 10 mM EDTA, 0.3% Triton X-100, pH 7.5). Plates were harvested by filtration onto glass fiber paper and counted on a Packard Matrix 96 beta counter. Percent DNA fragmentation was calculated as follows: […]

C[C@H](NC(=O)OCc1ccccc1)C(=O)N[C@@H](C)C(=O)NC(Cc1ccccc1)B(O)O (stereo partly drawn) [DK120, carbobenzoxy-ala-ala-borophe]
Lethality (mice; daily injection, 20 mg/kg, preliminary studies): lethal
Toxicity of compound alone (mice; mouse, in vivo): relatively toxic
IC50 (U937 cells; Homo sapiens, U-937, read-out: IC50 (Active Concentration), TNF and UV-light induced apoptosis): 1200 nM
Concentration of maximum suppression of DNA fragmentation (U937 cells; U937, TNF 1.0 ng/ml plus cycloheximide or UV 0.1 J/cm^2, 1 h pretreatment (FIG. 1)): 2.0 µM
Effect on DNA fragmentation induced by TNF or UV light (U937 cells; U937 cells, result in words): suppressed DNA fragmentation; also recorded: dose-dependently inhibit DNA fragmentation
AST ([1]; DK120 5 mg/kg ip 30 min prior to anti-Fas, 12 h, without DK120 81): 121 U/ml
ALT ([1]; DK120 5 mg/kg ip 30 min prior to anti-Fas, 12 h, without DK120 513): 746 U/ml
Effect on anti-Fas induced elevation of serum transaminases ([1]; mouse, in vivo): did not counteract the elevation of serum transaminases induced by anti-Fas antibodies
% Mortality ([2]; Gln + LPS + DK120 5 mg/kg, without DK120 33): 0%
AST ([2]; Gln + LPS + DK120 5 mg/kg, without DK120 100): 79 +/- 10 U/ml
ALT ([2]; Gln + LPS + DK120 5 mg/kg, without DK120 334): 182 +/- 17 U/ml
Effect on serum transaminase levels after LPS or SEB ([2]; LPS or SEB plus Gln, DK120 30 min prior): significant reduction in the serum transaminase levels
Effect on LPS-induced mortality, long term survival (FIG. 9) ([2]; mouse, in vivo): could delay or prevent LPS-induced mortality
% DNA fragmentation (3T3; inhibitor 1 μM): 24 ± 0.3%
% DNA fragmentation (3T3; inhibitor 5 μM): 19 ± 1.9%
Inhibition of chymotrypsin / chymotrypsin-like enzymes [3]: reversible inhibitor of chymotrypsin; also recorded: potently inhibits chymotrypsin-like enzymes
AST ([4]; Table 7, DK120 1 mg/kg ip 30 min prior to Actinomycin D + TNF, 12 h): 64 U/ml
ALT ([4]; Table 7, DK120 1 mg/kg ip 30 min prior to Actinomycin D + TNF, 12 h, without DK120 398): 232 U/ml
AST ([4]; Table 7, DK120 2.5 mg/kg ip 30 min prior to Actinomycin D + TNF, 12 h): 47 U/ml
ALT ([4]; Table 7, DK120 2.5 mg/kg ip 30 min prior to Actinomycin D + TNF, 12 h, without DK120 398): 145 U/ml
ALT ([4]; Table 7, DK120 5 mg/kg ip 30 min prior to Actinomycin D + TNF, 12 h, without DK120 398): 123 U/ml
AST ([4]; Table 7, DK120 10 mg/kg ip 30 min prior to Actinomycin D + TNF, 12 h): 56 U/ml
ALT ([4]; Table 7, DK120 10 mg/kg ip 30 min prior to Actinomycin D + TNF, 12 h, without DK120 398): 50 U/ml
Protection from TNF-induced hepatotoxicity ([4]; Table 10, 10 mg/kg): reduced levels of ALT to close to that of Actinomycin D alone
Effect on TNF-induced serum transaminase levels ([4]; ip 30 min prior to TNF): reduced transaminase to levels very close to those seen in mice injected with Actinomycin D only
ALT ([4]; mouse, in vivo): 190 +/- 21 U/ml and 141 +/- 20 U/ml
% Mortality ([5]; without DK120 33): 0%
AST ([5]; without DK120 119): 72 +/- 13 U/ml
ALT ([5]; without DK120 339): 205 +/- 28 U/ml
Inhibition of nuclear DNA fragmenting activity of protease from UV-treated cells (isolated U937 nuclei): inhibited
